Results as given in ChEMBL document CHEMBL1201862, “PubChem BioAssay data set” (2004).
The source made the active and inactive calls.

Assays:
[1] = cells; type: functional, cell-based
[2] = cells; type: functional, cell-based; remark: listed apart in the source
[3] = biological target: Prothrombin (Homo sapiens, UniProt P00734); experiment: Thrombin 1536 HTS Dose Response Confirmation. [Related pubchem assays: 1046 (Thrombin 1536 HTS; hits were confirmed in this assay)]; type: functional
[4] = biological target: T1, DNA repair protein RAD52 homolog (Homo sapiens, UniProt P43351); type: functional, biochemical
T1 sequence (P43351 whole entry): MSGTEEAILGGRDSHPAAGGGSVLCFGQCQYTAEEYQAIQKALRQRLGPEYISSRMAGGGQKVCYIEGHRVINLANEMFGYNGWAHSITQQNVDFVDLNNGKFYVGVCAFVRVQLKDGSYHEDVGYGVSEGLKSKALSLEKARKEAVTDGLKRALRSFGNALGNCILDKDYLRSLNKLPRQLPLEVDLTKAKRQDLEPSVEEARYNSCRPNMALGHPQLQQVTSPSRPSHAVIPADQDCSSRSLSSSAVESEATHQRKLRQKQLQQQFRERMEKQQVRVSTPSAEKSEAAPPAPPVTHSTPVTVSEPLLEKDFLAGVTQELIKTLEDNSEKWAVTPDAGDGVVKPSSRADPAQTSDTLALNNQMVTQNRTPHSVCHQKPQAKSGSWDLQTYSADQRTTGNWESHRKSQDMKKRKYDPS

[5] = A549 cell cytotoxicity, dose response, cytotoxicity control, plate reader, cherry-pick, antagonist series (AID 743412); type: functional, cell-based
[6] = HepG2 cell cytotoxicity, dose response, cytotoxicity control, plate reader, cherry-pick, antagonist series (AID 743416); type: functional, cell-based
[7] = HEK293 cell cytotoxicity, dose response, cytotoxicity control, plate reader, cherry-picked samples (AID 743446); type: functional, cell-based
[8] = growth suppression of beta-catenin-knockout colon cells, dose response, cell-based, HCT116, human colon tumor (AID 1045); type: functional;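 note: HCT116 colon tumor cells with beta catenin knocked out; cells exposed to compound for 60 hours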
[9] = growth suppression of PTEN-null colon cells, dose response, cell-based, HCT116 PTEN knockout (AID 1047); type: functional;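 note: HCT116 colon tumor cells with PTEN knocked out; cells exposed to compound for 60 hours before readout; potency for loss of cell viability measured by luminescence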
[10] = Luminescence Cell-Based Dose Retest to Confirm Inhibitors of Cancer Stem Cells. [Related pubchem assays (depositor defined):AID2717, AID2721]; type: functional; details: Homo sapiens
[11] = system: Vero; experiment: cells; type: functional; details: Chlorocebus sabaeus
[12] = inhibitors of clade B AD8 Env fusion, dose response, cell-based, cherry-pick (AID 652062); type: functional;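 note: luciferase signal from cell-cell fusion driven by HIV-1 clade B AD8 Env; potency is for inhibitors of fusion seen as a drop in luminescence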
[13] = off-target signal loss in HeLa-CEM21 co-culture – HeLa F-luc CTL cells, cherry-picked, counter-screen for HIV-1 Env fusion inhibitor project, dose response (AID 652040); type: functional, cell-based;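 note: potency for signal decrease marking cytotoxic or nonspecific inhibition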
[14] = inhibitors of HIV Env-driven cell fusion, dose response, cherry-pick (AID 652057); type: functional, cell-based
[15] = inhibitors of intracellular T. cruzi replication, confirmation, NIH3T3 host cells, beta-gal luminescence (AID 2044); type: functional, cell-based;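 note: intracellular parasites grown in NIH/3T3 mouse fibroblasts as host cells; luminescent beta-galactosidase reporter signal from transgenic T. cruzi replicating inside host cells; inhibitors lower the luminescence signal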
[16] = cytotoxicity toward NIH3T3 fibroblasts, dose response, counter-screen, cell-based, ATP luminescence, mouse fibroblasts (AID 2010); type: functional;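 note: cells exposed to compound for about 90 hours before reading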
[17] = system: Streptococcus sp. 'group A'; experiment: growth inhibition of control SK(-) GAS strain, dose response, counter-screen for streptokinase expression inhibitor project, luminescence, kanamycin, BacTiterGlo, confirmation (AID 1900); type: functional, organism-based
[18] = system: Streptococcus; experiment: Group A Streptococcus viability loss, dose response, counter-screen for streptokinase expression inhibitor project, luminescence, BacTiterGlo (AID 1915); type: functional, organism-based;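 note: potency for reduction of bacterial viability or growth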
[19] = biological target: Large T antigen (Simian virus 40, UniProt P03070); type: functional, Betapolyomavirus macacae;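 note: Confirmatory-stage PubChem screen for compounds that inhibit SV40 T antigen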
[20] = biological target: FAD-linked sulfhydryl oxidase ALR (Homo sapiens, UniProt P55789); experiment: inhibitors of human ALR sulfhydryl oxidase, dose response, biochemical, H2O2 detection, luminescence, cherry-pick (AID 493248)
[21] = biological target: T2, Methionyl-tRNA synthetase, putative (Trypanosoma brucei brucei, UniProt Q38C91); type: functional, Trypanosoma brucei brucei strain 927/4 GUTat10.1
T2 sequence (Q38C91 whole entry): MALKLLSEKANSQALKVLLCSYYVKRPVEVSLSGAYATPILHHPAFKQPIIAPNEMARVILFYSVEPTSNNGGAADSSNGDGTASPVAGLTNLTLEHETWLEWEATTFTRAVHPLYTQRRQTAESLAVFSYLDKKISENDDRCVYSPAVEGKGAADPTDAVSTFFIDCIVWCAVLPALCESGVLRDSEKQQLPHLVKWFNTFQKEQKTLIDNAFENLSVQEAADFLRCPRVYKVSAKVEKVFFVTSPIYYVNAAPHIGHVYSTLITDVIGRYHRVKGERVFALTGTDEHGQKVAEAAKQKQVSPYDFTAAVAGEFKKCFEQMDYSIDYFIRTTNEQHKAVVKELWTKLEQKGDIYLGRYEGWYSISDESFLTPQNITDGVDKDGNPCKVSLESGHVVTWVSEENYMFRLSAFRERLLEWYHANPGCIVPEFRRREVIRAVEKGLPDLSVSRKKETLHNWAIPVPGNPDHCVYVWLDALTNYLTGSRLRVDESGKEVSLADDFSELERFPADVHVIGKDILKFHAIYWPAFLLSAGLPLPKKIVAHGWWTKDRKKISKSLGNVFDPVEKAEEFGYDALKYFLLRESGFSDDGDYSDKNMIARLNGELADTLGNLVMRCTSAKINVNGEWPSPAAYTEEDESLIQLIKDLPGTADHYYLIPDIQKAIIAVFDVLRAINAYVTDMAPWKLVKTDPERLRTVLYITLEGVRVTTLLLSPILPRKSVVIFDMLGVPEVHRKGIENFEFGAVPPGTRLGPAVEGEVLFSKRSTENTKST

[22] = Counterscreen for inhibitors of Trypanosoma brucei methionyl tRNA synthetase (MetRS): Luminescence-based cell-based high throughput dose response assay to identify compounds that are cytotoxic to Jurkat human T lymphocyte cells.; type: functional
[23] = biological target: T2, Methionyl-tRNA synthetase, putative; type: functional, Trypanosoma brucei brucei strain 927/4 GUTat10.1; remark: listed apart in the source
[24] = ZM109 Env clade C HIV-1 fusion inhibitors, dose response, HeLa effector, CEM target cells, luciferase, cherry-pick (AID 652058); type: functional, cell-based
[25] = Luminescence Cell-Based Dose Confirmation HTS to Identify Activators of 5'UTR Stem-Loop Driven Alpha-Synuclein mRNA Translation in H4 Neuroglioblastoma Cells. [Related pubchem assays: 1829 (Project Summary), 1814 (Primary HTS)]; type: functional
[26] = system: H4; experiment: Luminescence Cell-Based Dose Response HTS to Identify Activators of 5'UTR Stem-Loop Driven Prion Protein mRNA Translation in H4 Neuroglioblastoma Cells. [Related pubchem assays: 1829 (Project Summary), 1814 (Primary HTS)]; type: functional; details: Homo sapiens
[27] = Luminescence Cell-Based Dose Response HTS to Identify Activators of Luciferase Translation or Activity in H4 […] Cells. [Related pubchem assays: 1829 (Project Summary), 1814 (Primary HTS)]; type: functional

Large T antigen, sequence (P03070 whole entry): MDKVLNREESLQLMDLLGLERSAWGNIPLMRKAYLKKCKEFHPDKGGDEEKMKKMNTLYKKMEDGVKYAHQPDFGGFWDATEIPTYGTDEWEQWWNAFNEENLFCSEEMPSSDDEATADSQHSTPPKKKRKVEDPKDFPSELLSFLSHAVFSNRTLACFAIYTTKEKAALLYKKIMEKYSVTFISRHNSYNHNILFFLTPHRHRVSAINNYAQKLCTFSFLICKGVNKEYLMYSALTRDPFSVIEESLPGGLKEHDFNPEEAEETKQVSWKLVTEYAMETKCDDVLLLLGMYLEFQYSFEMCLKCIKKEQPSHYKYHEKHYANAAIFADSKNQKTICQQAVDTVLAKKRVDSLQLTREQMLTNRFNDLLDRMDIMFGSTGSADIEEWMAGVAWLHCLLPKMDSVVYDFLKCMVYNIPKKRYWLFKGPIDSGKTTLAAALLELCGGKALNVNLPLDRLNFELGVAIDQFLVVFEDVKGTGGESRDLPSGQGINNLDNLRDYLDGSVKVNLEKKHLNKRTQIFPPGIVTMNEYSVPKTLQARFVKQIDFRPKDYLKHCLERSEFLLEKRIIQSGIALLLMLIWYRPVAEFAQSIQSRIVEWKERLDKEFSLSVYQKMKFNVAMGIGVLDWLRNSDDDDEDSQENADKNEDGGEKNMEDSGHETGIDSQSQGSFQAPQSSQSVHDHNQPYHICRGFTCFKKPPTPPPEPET
FAD-linked sulfhydryl oxidase ALR, sequence (P55789 whole entry): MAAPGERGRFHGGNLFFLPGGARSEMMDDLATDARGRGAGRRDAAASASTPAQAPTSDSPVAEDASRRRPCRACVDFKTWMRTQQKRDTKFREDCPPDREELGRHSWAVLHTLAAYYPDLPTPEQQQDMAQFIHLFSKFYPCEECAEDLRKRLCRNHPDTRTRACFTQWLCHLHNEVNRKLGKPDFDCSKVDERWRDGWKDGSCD

In the case of `CC(Cc1ccccc1)NC(=O)/C=C/C(=O)O` (stereo not given), the IC50 [1] is reported as > 29.9 µM (inactive) and the EC50 [2] is reported as > 29.9 µM (inactive).
With `Cc1cc(C(=O)CSc2nnnn2C)c(C)n1-c1cccc(F)c1` the IC50 [3] was > 50 µM (not active).
With `NCc1cc2c3c(c1)CCCN3CCC2` the AC50 [4] was 1.92 µM (active).
In the case of `COc1ccccc1NC(=O)N1CCCC1C(=O)NC1CCCCC1` (stereo not given), the IC50 [3] is reported as > 50 µM (not active).
In the case of `COc1ccccc1N1CCN(C(=O)c2sc3nc(-c4ccc(F)cc4)cn3c2C)CC1`, the AC50 [5] is reported as > 52 µM (inactive), the AC50 [6] is reported as 43.3 µM (active) and the AC50 [7] is reported as 37.1 µM (active).
For `Cc1cc2nc(-c3ccc(SCC(=O)Nc4nccs4)nc3)[nH]c2cc1C`, the EC50 [8] was 33.3 µM (active) and the EC50 [9] was 19.6 µM (active).
In the case of `COc1ccc(C)cc1N1C(=O)C(c2ccccc2)C(c2nc3ccccc3s2)=C1N` (stereo not given), the EC50 [8] is reported as 2.48 µM (active), the AC50 [10] is reported as 4.88 µM (active) and the EC50 [9] is reported as 3.06 µM (active). For the same compound, the CC50 [11] was 6.15 µM (active).
With `CCN(CC)CCCNC(=O)c1csc(Nc2cccc3ccccc23)n1` the AC50 [4] was 21.9 µM (active).
In the case of `CC(C)N(Cc1nc(-c2ccccc2)no1)C(=O)CN(C)S(=O)(=O)c1ccc(Br)cc1`, the AC50 [12] is reported as 20.1 µM (active), the AC50 [13] is reported as 60.4 µM (active) and the AC50 [14] is reported as 49.9 µM (active).
For `O=C(CNC(=O)OCc1ccccc1)Nc1ccc(Br)cc1C(=O)c1ccccc1Cl`, the EC50 [8] was 45.4 µM (active) and the EC50 [9] was 44.5 µM (active).
In the case of `COc1ccccc1/C=C/c1ccc2cccc(O)c2n1`, the EC50 [15] is reported as 2.74 µM (active), the EC50 [16] is reported as > 60 µM (not active) and the CC50 [11] is reported as > 25 µM (active). The EC50 [17] was 1.52 µM (active) and the EC50 [18] was 6 µM (active).
For `NC(=O)Nc1ccc(Nc2ccccc2)cc1`, the IC50 [19] was 7.83 µM (active) and the AC50 [20] was 0.916 µM (active).
In the case of `C#CCSc1nncn1C(=O)/C=C/c1ccccc1`, the IC50 [3] is reported as 0.294 µM (active).
For `CC(C)(C)[C@H]1C=C(C(=O)NCc2nc3ccccc3[nH]2)O[C@@H](OCCCCO)C1`, the IC50 [21] was 2.63 µM (active), the IC50 [22] was 83.3 µM (inactive) and the IC50 [23] was 6.66 µM (active).
For `COc1ccc(C2C=C(c3ccc(Br)cc3)Nc3nc(N4C(=O)CCC4=O)nn32)cc1` (stereo not given), the IC50 [3] was > 50 µM (not active).
With `O=C(Nc1ccc(O)cc1)c1ccc(NC(=O)C2CCCO2)cc1` (stereo not given) the IC50 [19] was 11.1 µM (active).
With `O=C(Nc1ccc(CN2CCS(=O)(=O)CC2)cc1)c1ccc(C(F)(F)F)cc1` the AC50 [12] was 3.22 µM (active) and the AC50 [13] was > 70 µM (inactive).
In the case of `CSCc1nc2scc(-c3ccccc3)c2c(=O)[nH]1`, the IC50 [3] is reported as > 50 µM (not active).
In the case of `Cc1cc(C(=O)COc2cccc(-n3cnnn3)c2)c(C)n1-c1ccccc1`, the EC50 [8] is reported as 77.4 µM (active) and the EC50 [9] is reported as 48.3 µM (active).
With `Cc1ccc(CNC(=O)CSc2n[nH]c3c4cc(F)ccc4nc-3n2)cc1` the IC50 [21] was 0.785 µM (active), the IC50 [22] was 83.3 µM (inactive) and the IC50 [23] was 119 µM (inactive).
For `CCN1C(=O)C(CC(=O)Nc2ccc(OC)cc2)N(CCc2ccc(F)cc2)C1=S` (stereo not given), the IC50 [21] was 6.2 µM (active), the IC50 [22] was 61.1 µM (inactive) and the IC50 [23] was 11.4 µM (inactive).
With `Cc1ccccc1CCN(C(=O)c1csnn1)C(C(=O)NC1CCCC1)c1ccncc1` (stereo not given) the AC50 [12] was < 0.26 µM (active), the AC50 [24] was 0.742 µM (active) and the AC50 [13] was 1.13 µM (active). The AC50 [14] was 0.548 µM (active).
With `O=C(CNC(=O)c1ccccc1F)OCC(=O)c1c[nH]c2ccccc12` the IC50 [1] was > 29.9 µM (inactive) and the EC50 [2] was > 29.9 µM (inactive).
With `OC(c1cc(F)cc(Cl)c1)c1nc(-c2ccc(Cl)cc2)c[nH]1` (stereo not given) the IC50 [21] was 6.73 µM (active), the IC50 [22] was 56.3 µM (inactive) and the IC50 [23] was 15 µM (inactive).
In the case of `Sc1nnc(COc2ccccc2)n1/N=C/C(Cl)=C/c1ccccc1`, the EC50 [25] is reported as 6.85 µM (active), the AC50 [10] is reported as 2.32 µM (active) and the EC50 [26] is reported as > 120 µM (not active). The EC50 [27] was 12.6 µM (active) and the CC50 [11] was > 25 µM (active).
With `CC1CCN(S(=O)(=O)c2cc(C(=O)N3CCN(c4ccccc4)CC3)ccc2Br)CC1` the AC50 [12] was 4.92 µM (active), the AC50 [24] was 3.22 µM (active) and the AC50 [14] was 40.3 µM (active).
With `CC(C)CC#Cc1ccc2c(c1)O[C@@H](CN(C)S(=O)(=O)c1cccc(F)c1)[C@@H](C)CN([C@@H](C)CO)S2(=O)=O` the AC50 [12] was 11.6 µM (active), the AC50 [24] was 8.81 µM (active) and the AC50 [14] was 7.21 µM (active).
In the case of `C[C@H](CO)N1C[C@H](C)[C@H](CN(C)S(=O)(=O)c2ccccc2F)Oc2ncc(/C=C/c3ccccc3)cc2C1=O`, the AC50 [12] is reported as 10.1 µM (active), the AC50 [24] is reported as 10.2 µM (active) and the AC50 [14] is reported as 3.51 µM (active).
In the case of `COc1cccc(S(=O)(=O)N(C)C[C@@H]2Oc3cc(C#CCC(C)C)ccc3S(=O)(=O)N([C@@H](C)CO)C[C@@H]2C)c1`, the AC50 [12] is reported as 25.7 µM (active), the AC50 [24] is reported as 46.1 µM (active) and the AC50 [14] is reported as 20 µM (active).
In the case of `N=C(N)N/N=C/c1ccc(OCc2ccccc2Cl)cc1`, the EC50 [8] is reported as 4.04 µM (active), the EC50 [15] is reported as 0.539 µM (active) and the EC50 [9] is reported as 4.14 µM (active). The EC50 [16] was > 60 µM (not active) and the AC50 [4] was 16.6 µM (active).
